# Test results from patent US8741944B2, “Anti-infective agents against intracellular pathogens” (priority 2007, dated 2014).
# Where “and” joins values, the source holds several entries; their conditions need not be identical. Equal values may be shown once. Read-outs that look alike come from different tables or passages of the source.
# Assays:
# [1] = system: KM12 (Colon Cancer); experiment: NCI DTP tumor cell line screen (SRB), KM12
# Protocol: (§1) For a typical screening experiment, cells are inoculated into 96 well microtiter plates in 100 μL at plating densities ranging from 5,000 to 40,000 cells/well depending on the doubling time of individual cell lines. After cell inoculation, the microtiter plates are incubated at 37° C., 5% CO2, 95% air and 100% relative humidity for 24 h prior to addition of experimental drugs.
# (§2) After 24 h, two plates of each cell line are fixed in situ with TCA, to represent a measurement of the cell population for each cell line at the time of drug addition (Tz). Experimental drugs are solubilized in dimethyl sulfoxide at 400-fold the desired final maximum test concentration and stored frozen prior to use. At the time of drug addition, an aliquot of frozen concentrate is thawed and diluted to twice the desired final maximum test concentration with complete medium containing 50 μg/ml gentamicin. Additional four, 10-fold or ½ log serial dilutions are made to provide a total of five drug concentrations plus control. Aliquots of 100 μl of these different drug dilutions are added to the appropriate microtiter wells already containing 100 μl of medium, resulting in the required final drug concentrations.
# (§3) Following drug addition, the plates are incubated for an additional 48 h at 37° C., 5% CO2, 95% air, and 100% relative humidity. For adherent cells, the assay is terminated by the addition of cold TCA. Cells are fixed in situ by the gentle addition of 50 μl of cold 50% (w/v) TCA (final concentration, 10% TCA) and incubated for 60 minutes at 4° C. The supernatant is discarded, and the plates are washed five times with tap water and air dried. Sulforhodamine B (SRB) solution (1001) at 0.4% (w/v) in 1% acetic acid is added to each well, and plates are incubated for 10 minutes at room temperature. After staining, unbound dye is removed by washing five times with 1% acetic acid and the plates are air dried. Bound stain is subsequently solubilized with 10 mM trizma base, and the absorbance is read on an automated plate reader at a wavelength of 515 nm. For suspension cells, the methodology is the same except that the assay is terminated by fixing settled cells at the bottom of the wells by gently adding 50 μl of 80% TCA (final concentration, 16% TCA). Using the seven absorbance measurements [time zero, (Tz), control growth, (C), and test growth in the presence of drug at the five concentration levels (Ti)], the percentage growth is calculated at each of the drug concentrations levels. Percentage growth inhibition is calculated as: [(Ti−Tz)/(C−Tz)]×100 for concentrations for which Ti>/=Tz [(Ti−Tz)/Tz]×100 for concentrations for which Ti<Tz
# (§4) Three dose response parameters are calculated for each experimental agent. […] The drug concentration resulting in total growth inhibition (TGI) is calculated from Ti=Tz. […] Values are calculated for each of these three parameters if the level of activity is reached; however, if the effect is not reached or is exceeded, the value for that parameter is expressed as greater or less than the maximum or minimum concentration tested.
# [2] = system: PC-3 (Prostate Cancer); experiment: NCI DTP tumor cell line screen (SRB), PC-3
# Protocol: as §1, §2, §3, §4
# [3] = system: TK-10 (Renal Cancer); experiment: NCI DTP tumor cell line screen (SRB), TK-10
# Protocol: as §1, §2, §3, §4
# [4] = system: T-47D (Breast Cancer); experiment: NCI DTP tumor cell line screen (SRB), T-47D
# Protocol: as §1, §2, §3, §4
# [5] = system: IGROV1 (Ovarian Cancer); experiment: NCI DTP tumor cell line screen (SRB), IGROV1
# Protocol: as §1, §2, §3, §4
# [6] = system: HCT-116 (Colon Cancer); experiment: NCI DTP tumor cell line screen (SRB), HCT-116
# Protocol: as §1, §2, §3, §4
# [7] = system: OVCAR-3 (Ovarian Cancer); experiment: NCI DTP tumor cell line screen (SRB), OVCAR-3
# Protocol: as §1, §2, §3, §4
# [8] = system: OVCAR-5 (Ovarian Cancer); experiment: NCI DTP tumor cell line screen (SRB), OVCAR-5
# Protocol: as §1, §2, §3, §4
# [9] = system: SK-OV-3 (Ovarian Cancer); experiment: NCI DTP tumor cell line screen (SRB), SK-OV-3
# Protocol: as §1, §2, §3, §4
# [10] = system: CCRF-CEM (Leukemia); experiment: NCI DTP tumor cell line screen (SRB), CCRF-CEM
# Protocol: as §1, §2, §3, §4
# [11] = system: NCI-H460 (Non-Small Cell Lung Cancer)
# Protocol: as §1, §2, §3, §4
# [12] = system: MALME-3M (Melanoma); experiment: NCI DTP tumor cell line screen (SRB), MALME-3M
# Protocol: as §1, §2, §3, §4
# [13] = system: RPMI-8226 (Leukemia); experiment: NCI DTP tumor cell line screen (SRB), RPMI-8226
# Protocol: as §1, §2, §3, §4
# [14] = system: SK-MEL-28 (Melanoma); experiment: NCI DTP tumor cell line screen (SRB), SK-MEL-28
# Protocol: as §1, §2, §3, §4
# [15] = system: NCI/ADR-RES (Breast Cancer)
# Protocol: as §1, §2, §3, §4
# [16] = system: sixty human tumor cell lines; experiment: NCI DTP sixty human tumor cell line screen (SRB), means over the panel
substance,measurement,setting,value
4-[5-(2-Phenanthrenyl)-3-(trifluoromethyl)-1H-pyrazol-1-yl]-phenyl -guanidine [Compound 71],GI50,[1],1.59 µM
same,TGI,[1],2.97E−06
same,Percent Growth,[1]; Log10 Concentration −4.0,−43%
same,Percent Growth,[1]; Log10 Concentration −5.0,−98%
same,Percent Growth,[1]; Log10 Concentration −7.0,91%
same,Percent Growth,[1]; Log10 Concentration −8.0,94%
same,GI50,[2],1.38 µM
same,TGI,[2],2.67E−06
same,Percent Growth,[2]; Log10 Concentration −5.0,−100%
same,Percent Growth,[2]; Log10 Concentration −6.0,75%
same,Percent Growth,[2]; Log10 Concentration −7.0,73%
same,Percent Growth,[2]; Log10 Concentration −8.0,75%
same,GI50,[3],1.32 µM
same,TGI,[3],2.59E−06
same,Percent Growth,[3]; Log10 Concentration −4.0,−64%
same,Percent Growth,[3]; Log10 Concentration −5.0,−100%
same,Percent Growth,[3]; Log10 Concentration −6.0,71%
same,Percent Growth,[3]; Log10 Concentration −7.0,90%
same,Percent Growth,[3]; Log10 Concentration −8.0,78%
same,GI50,[4],< 0.01 µM
same,TGI,[4],1.98E−06
same,Percent Growth,[4]; Log10 Concentration −4.0,−53%
same,Percent Growth,[4]; Log10 Concentration −5.0,−76%
same,Percent Growth,[4]; Log10 Concentration −6.0,32%
same,Percent Growth,[4]; Log10 Concentration −7.0,47%
same,Percent Growth,[4]; Log10 Concentration −8.0,36%
same,GI50,[5],1.07 µM
same,TGI,[5],2.26E−06
same,Percent Growth,[5]; Log10 Concentration −4.0,−53%
same,Percent Growth,[5]; Log10 Concentration −5.0,−100%
same,Percent Growth,[5]; Log10 Concentration −6.0,55%
same,Percent Growth,[5]; Log10 Concentration −7.0,83%
same,Percent Growth,[5]; Log10 Concentration −8.0,85%
same,GI50,[6],1.29 µM
same,TGI,[6],2.55E−06
same,Percent Growth,[6]; Log10 Concentration −4.0,−49%
same,Percent Growth,[6]; Log10 Concentration −5.0,−100%
same,Percent Growth,[6]; Log10 Concentration −6.0,68%
same,Percent Growth,[6]; Log10 Concentration −8.0,82%
same,GI50,[7],1.4 µM
same,TGI,[7],2.70E−06
same,Percent Growth,[7]; Log10 Concentration −4.0,−72%
same,Percent Growth,[7]; Log10 Concentration −5.0,−100%
same,Percent Growth,[7]; Log10 Concentration −6.0,76%
same,Percent Growth,[7]; Log10 Concentration −8.0,91%
same,GI50,[8],1.73 µM
same,TGI,[8],3.11E−06
same,Percent Growth,[8]; Log10 Concentration −4.0,−8%
same,Percent Growth,[8]; Log10 Concentration −5.0,−100%
same,Percent Growth,[8]; Log10 Concentration −6.0,97%
same,Percent Growth,[8]; Log10 Concentration −8.0,95%
same,GI50,[9],1.43 µM
same,TGI,[9],2.94E−06
same,Percent Growth,[9]; Log10 Concentration −4.0,−30%
same,Percent Growth,[9]; Log10 Concentration −5.0,−85%
same,Percent Growth,[9]; Log10 Concentration −6.0,75%
same,Percent Growth,[9]; Log10 Concentration −7.0,91%
same,GI50,[10],1.23 µM
same,TGI,[10],2.48E−06
same,Percent Growth,[10]; Log10 Concentration −4.0,−53%
same,Percent Growth,[10]; Log10 Concentration −5.0,−99%
same,Percent Growth,[10]; Log10 Concentration −6.0,65%
same,Percent Growth,[10]; Log10 Concentration −7.0,79%
same,Percent Growth,[10]; Log10 Concentration −8.0,78%
same,GI50,[11],1.64 µM
same,TGI,[11],3.04E−06
same,Percent Growth,[11]; Log10 Concentration −4.0,−20%
same,Percent Growth,[11]; Log10 Concentration −5.0,−97%
same,Percent Growth,[11]; Log10 Concentration −6.0,90%
same,Percent Growth,[11]; Log10 Concentration −7.0,91%
same,Percent Growth,[11]; Log10 Concentration −8.0,91%
same,GI50,[12],1.01 µM
same,TGI,[12],2.33E−06
same,Percent Growth,[12]; Log10 Concentration −4.0,−50%
same,Percent Growth,[12]; Log10 Concentration −6.0,50%
same,Percent Growth,[12]; Log10 Concentration −8.0,52%
same,GI50,[13],1.03 µM
same,TGI,[13],2.25E−06
same,Percent Growth,[13]; Log10 Concentration −4.0,−47%
same,Percent Growth,[13]; Log10 Concentration −5.0,−95%
same,Percent Growth,[13]; Log10 Concentration −6.0,52%
same,Percent Growth,[13]; Log10 Concentration −7.0,65%
same,Percent Growth,[13]; Log10 Concentration −8.0,58%
same,GI50,[14],1.56 µM
same,TGI,[14],2.89E−06
same,Percent Growth,[14]; Log10 Concentration −4.0,−53%
same,Percent Growth,[14]; Log10 Concentration −5.0,−100%
same,Percent Growth,[14]; Log10 Concentration −7.0,90%
same,GI50,[15],2.64 µM
same,TGI,[15],7.73E−06
same,Percent Growth,[15]; Log10 Concentration −4.0,−47%
same,Percent Growth,[15]; Log10 Concentration −6.0,95%
same,Percent Growth,[15]; Log10 Concentration −8.0,98%
same,concentration range completely suppressing cell growth in a diverse range of tumor cell lines,[16],3 to 5 µM
same,GI50,"[16]; read-out: mean GI50 among the sixty cell lines, two-day treatment",1.2 µM and 1.3 µM
same,CC50,"[16]; read-out: mean LC50 among the sixty cell lines, two-day treatment",8.5 µM
same,mean TGI among the sixty cell lines,[16]; two-day treatment,2.9 µM
